“And” between values parts separate entries of the source, which are not always exact repeats. Identical values can stand only once.
Key:
[1] = literature value; cited from earlier work
physchem = settings: SiO1000, oil or lipid
[2] = atRA saturation concentration in SiO and blends using tritiated atRA (liquid scintillation)

CC1=C(/C=C/C(C)=C/C=C/C(C)=C/C(=O)O)C(C)(C)CCC1 [atRA, (2E,4E,6E,8E)-3,7-Dimethyl-9-(2,6,6-trimethylcyclohexen-1-yl)nona-2,4,6,8-tetraenoic acid]
Solubility reported for atRA in SiO1000 in the literature [1]: 20 μg/mL and 0.6×10^−4 M
solubility (physchem): ~28 µg/mL and 95 µM
Saturation amount of atRA in SiO1000 blended with 1% PDMS-atRA ([2]; 1% (v/v) PDMS-atRA in SiO1000, after 2 weeks at ambient temperature, in air): 2.17 × 10^−3 M and 651.0 μg/mL
Saturation amount of atRA in SiO1000 blended with 5% PDMS-atRA ([2]; 5% (v/v) PDMS-atRA in SiO1000, after 2 weeks at ambient temperature, in air): 2.33 × 10^−3 M and 699.8 μg/mL
Solubility measured with tritiated atRA relative to the previous values ([2]; in SiO1000, tritiated atRA versus previous values): over 20 times
Saturation of atRA in SiO5000 ([2]; in SiO5000, tritiated atRA, n=1): 610 μg/mL and 2.03×10^−3 M

Source: patent US11931415B2, “Ophthalmic compositions” (The University of Liverpool, priority 2016, dated 2024)
